Laboratory results: patent publication US20240360166A1, “SALTS AND SOLID FORMS OF A COMPOUND HAVING GLP-1 AGONIST ACTIVITY” (Gasherbrum Bio, Inc., priority 2022, published 2024)
Entries after “also recorded” stand apart in the source; their conditions may differ.

Legend:
[1] = Hygroscopicity, DVS evaluation of free acid Form A and re-prepared salts (Table 5-7); format: physicochemical; conditions: for Form change after DVS: XRPD after DVS, * converted to a potential isomorphic hydrate by XRPD
Procedure: XRPD characterization was performed for the samples after DVS test.
DVS was measured via a SMS (Surface Measurement Systems) DVS Intrinsic. The relative humidity at 25° C. were calibrated against deliquescence point of LiCl, Mg(NO3)2 and KCl.

[2] = Dog pharmacokinetic study, Free Acid Form A, sodium salt Form A, L-arginine salt Form A in oral HPMC capsule (Table 8-5); format: in vivo; conditions: 2 mg/kg, male Beagle dogs
Procedure: The objective of this study was to characterize the pharmacokinetics (PK) of Compound I in male Beagle dogs after oral (PO) or IV administration. […] The dose was administered orally by gavage to dogs. […] The plasma concentration of Compound I was determined by liquid chromatography with mass spectrometric detection (LC-MS/MS).

[3] = Kinetic solubility in water, pH buffers and bio-relevant media at 37° C. (Table 5-6); format: physicochemical; conditions: for pH: pH of solubility sample; for XRPD: residual solids
Procedure: Around 10 mg material was weighed into 5 mL water, buffer solution, SGF, FaSSIF or FeSSIF^1 followed by rolling at 25 rpm at 37° C. for 0.5 and 1 h. At each time point, around 0.8 mL suspension was sampled out for centrifugation and filtration. Solids were tested by XRPD.

[4] = Solid stability evaluation of free acid Form A, Na salt Form A and L-arginine salt Form A, 2 weeks (Table 5-5); format: physicochemical; conditions: for Form change: XRPD
[5] = 50 mM acetate buffer (4.5), 0.5 h, 37° C.
[6] = alkaline borate buffer (8), 0.5 h, 37° C.
[7] = alkaline borate buffer (8), 1.0 h, 37° C.
[8] = 25° C./92.5% RH, open container, 2 weeks
[9] = 40° C./75% RH, open container, 2 weeks
[10] = 60° C., tight container, 2 weeks

Substance: 3-((1S,2S)-1-(2-((S)-3-(3-(4-(diethylphosphoryl)-3-(methylamino)phenyl)-2-oxo-2,3-dihydro-1H-imidazol-1-yl)-2-(4-fluoro-3,5-dimethylphenyl)-4-methyl-4,5,6,7-tetrahydro-2H-pyrazolo[4,3-c]pyridine-5-carbonyl)-5-(tetrahydro-2H-pyran-4-yl)-1H-indol-1-yl)-2-methylcyclopropyl)-1,2,4-oxadiazol-5(4H)-one sodium salt Form A [Compound I sodium salt Form A]
- Water uptake (@ 25° C./40-95% RH) ([1]; DVS, 25° C., 40-95% RH): 10.4%
- Form change after DVS ([1]; listed as Compound I Na salt Form A): converted to a new form; also recorded: form change was observed
- Form change after DVS ([1]; listed as Na salt Form A): Yes*
- Tmax (median) [2]: 2.0 h
- Tmax (range) [2]: [1.0-2.0] h
- Cmax ([2]; mean): 64.1 ng/mL
- AUClast ([2]; mean, t = 8 h): 198 h*ng/m:
- Solubility ([3]; 50 mM acetate buffer (4.5), 0.5 h, 37° C., LOQ = 0.500 μg/mL): <LOQ
- pH [3, 5]: (4.60)
- XRPD [3, 5]: AF^2
- Solubility ([3]; 50 mM acetate buffer (4.5), 1.0 h, 37° C., LOQ = 0.500 μg/mL): <LOQ
- pH ([3]; 50 mM acetate buffer (4.5), 1.0 h, 37° C.): (4.55)
- Solubility ([3]; 0.1N HCl (1.2), 0.5 h, 37° C., LOQ = 0.500 μg/mL): <LOQ
- pH ([3]; 0.1N HCl (1.2), 0.5 h, 37° C.): (0.95)
- Solubility ([3]; 0.1N HCl (1.2), 1.0 h, 37° C., LOQ = 0.500 μg/mL): <LOQ
- pH ([3]; 0.1N HCl (1.2), 1.0 h, 37° C.): (1.06)
- XRPD ([3]; 0.1N HCl (1.2), 1.0 h, 37° C.): AF^1
- Kinetic solubility, comparison between forms ([3]; 37° C., 0.5 and 1 h): higher than that of L-arginine salt Form A
- Solubility ([3]; FaSSIF (6.5), 0.5 h, 37° C.): 9.1 µg/mL
- pH ([3]; FaSSIF (6.5), 0.5 h, 37° C.): (6.53)
- XRPD ([3]; FaSSIF (6.5), 0.5 h, 37° C.): AF^3
- Solubility ([3]; FaSSIF (6.5), 1.0 h, 37° C.): 10.2 µg/mL
- pH ([3]; FaSSIF (6.5), 1.0 h, 37° C.): (6.60)
- XRPD ([3]; FaSSIF (6.5), 1.0 h, 37° C.): AF^3
- Solubility ([3]; FeSSIF (5.0), 0.5 h, 37° C.): 42.7 µg/mL
- pH ([3]; FeSSIF (5.0), 0.5 h, 37° C.): (4.98)
- Solubility ([3]; FeSSIF (5.0), 1.0 h, 37° C.): 40.9 µg/mL
- pH ([3]; FeSSIF (5.0), 1.0 h, 37° C.): (5.06)
- XRPD ([3]; FeSSIF (5.0), 1.0 h, 37° C.): AF^1
- Solubility ([3]; H2O, 0.5 h, 37° C.): 1907.0 µg/mL
- pH ([3]; H2O, 0.5 h, 37° C.): (8.50)
- Solubility ([3]; H2O, 1.0 h, 37° C.): 1742.2 µg/mL
- pH ([3]; H2O, 1.0 h, 37° C.): (8.34)
- Solubility ([3]; SGF (2.0), 0.5 h, 37° C.): 14.2 µg/mL
- pH ([3]; SGF (2.0), 0.5 h, 37° C.): (2.13)
- XRPD ([3]; SGF (2.0), 0.5 h, 37° C.): AF^1
- Solubility ([3]; SGF (2.0), 1.0 h, 37° C.): 15.8 µg/mL
- pH ([3]; SGF (2.0), 1.0 h, 37° C.): (2.17)
- XRPD ([3]; SGF (2.0), 1.0 h, 37° C.): AF^1
- Solubility [3, 6]: 179.0 µg/mL
- pH [3, 6]: (7.99)
- XRPD [3, 6]: AF^3
- Solubility [3, 7]: 164.2 µg/mL
- pH [3, 7]: (7.99)
- XRPD [3, 7]: AF^3
- Disproportionation after solubility study (XRPD) ([3]; solids after kinetic solubility test): disproportionation was observed
- Chemical and physical stability ([4]; 25° C./92.5% RH open, 40° C./75% RH open, 60° C. tight container, over 2 weeks, listed as Na salt Form A): chemically stable in these conditions but physically unstable at 25° C./92.5% RH and 40° C./75% RH
- Color Change [4, 8]: No
- HPLC purity (%) [4, 8]: 99.1%
- HPLC purity/initial (%) [4, 8]: >100%
- Form change ([4]; 25° C./92.5% RH, open container, 2 weeks, * Likely isomorphic hydrate): Yes*
- Color Change [4, 9]: No
- HPLC purity (%) [4, 9]: 99.1%
- HPLC purity/initial (%) [4, 9]: >100%
- Form change ([4]; 40° C./75% RH, open container, 2 weeks, * Likely isomorphic hydrate): Yes*
- Color Change [4, 10]: No
- HPLC purity (%) [4, 10]: 99.1%
- HPLC purity/initial (%) [4, 10]: >100%
- Form change [4, 10]: No
- HPLC purity (%) ([4]; Initial): 99.0%
